{"source": "PubChem BioAssay (NCI)", "note": "Where “and” joins values, the source holds several entries; their conditions need not be identical. Equal entries are not always repeated.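 Cells were grown in 96-well plates and exposed to each compound for 48 hours at five concentrations; endpoints were interpolated linearly between bracketing concentrations, or set to the highest concentration if not reached. GI50 is the concentration that inhibits growth by half. TGI: total growth inhibition.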"}
{"system": "MDA-MB-468 breast", "experiment": "inhibition of tumour cell growth, NCI panel, 48 h"}
{"smiles": "CC(C)[C@@H](C(=O)O[C@@H]1/C=C/C(=O)O[C@@H](C)CCC/C=C/[C@@H]2C[C@H](O)C[C@H]21)N(C)C", "GI50": "1.53 µM", "TGI": "6.18 µM"}
{"smiles": "COc1nn(C)cc1Nc1nccc(-c2c[nH]c3c(NC(=O)[C@@H](C)N4CCN(C)CC4)cccc23)n1", "GI50": "25 µM", "TGI": "67.8 µM"}
{"smiles": "c1ccc2c(N=NSc3ncnc4nc[nH]c34)c3ccccc3nc2c1", "GI50": "0.549 µM", "TGI": "2.34 µM"}
{"smiles": "O=C1C2=C(C(=O)c3ccccc31)C(O)(S(=O)(=O)O)C(O)(S(=O)(=O)O)C1N=CC=CC21", "note": "(configuration not stated)", "GI50": "10.6 µM and 4.29 µM", "TGI": "37.5 µM and 21.2 µM"}
{"smiles": "COc1c(C(N)=O)cc(-c2ccc(Cl)cc2)cc1-c1ccc(S(N)(=O)=O)cc1", "GI50": "4.33 µM", "TGI": "11.1 µM"}
{"smiles": "O=C1/C=C/[C@@H](O)[C@@H]2C[C@@H](O)C[C@H]2/C=C/CCC[C@H](CCO)O1", "GI50": "0.0239 µM", "TGI": "0.0757 µM"}
{"smiles": "COc1ccc2c3ccnc(C(F)(F)F)c3n(CCCCN)c2c1", "GI50": "3.22 µM", "TGI": "13.4 µM"}
{"smiles": "CCOP(=O)(OCC)/C(=C/n1c(=S)[nH]c2ccccc21)C(=O)OC", "GI50": "> 100 µM", "TGI": "> 100 µM"}
{"smiles": "CCOC(=O)C1=C(Nc2ccc(OC)cc2)C(N)=NC1=N", "GI50": "0.474 µM", "TGI": "> 100 µM"}
{"smiles": "CCN(CC)CCOc1nc2ccccc2c2c1-c1ccc(OC)cc1C2=O", "GI50": "0.857 µM", "TGI": "3.26 µM"}
{"smiles": "CCN1CCN(C(=O)[C@]23CC[C@@H](C)[C@H](C)[C@@H]2C2=CC[C@@H]4[C@@]5(C)CCC(=O)C(C)(C)[C@@H]5CC[C@@]4(C)[C@]2(C)CC3)CC1", "GI50": "0.931 µM", "TGI": "2.32 µM"}
{"smiles": "COc1cc(OC)c(/C=C/C(=O)c2c(OC)cc(OC)cc2OC)c(OC)c1", "GI50": "0.7 µM", "TGI": "4.55 µM"}
{"smiles": "Cc1cc(OCc2ccc(C(F)(F)F)cc2)c2c(c1)C(=O)C=C(NCCN1CCCC1)C2=O", "GI50": "2 µM", "TGI": "4.55 µM"}
{"smiles": "Cn1nc(C(F)(F)F)cc1-c1cc(Cl)c(OCc2ccc(Cl)cc2)c(-c2ccc(Cl)c(C(F)(F)F)c2)c1O", "GI50": "0.833 µM", "TGI": "4.97 µM"}
{"smiles": "Cc1ccc2sc3c(NCCCN)nc4ccccc4c3c(=O)c2c1", "GI50": "1.67 µM", "TGI": "3.36 µM"}
{"smiles": "CN1CCN(Cc2ccc(NC(=O)c3cncc(C#Cc4ccc(N)nc4)c3)cc2C(F)(F)F)CC1", "GI50": "1.01 µM", "TGI": "4.3 µM"}
{"smiles": "NC(=Nc1ccccc1)N/N=C/c1c[nH]c2ccccc12", "GI50": "0.501 µM", "TGI": "1.87 µM"}
{"smiles": "COc1cc2ncnc(Oc3ccc(NC(=O)Nc4ccc(CN5CCOCC5)c(C(F)(F)F)c4)c4ccccc34)c2cc1OC", "GI50": "0.249 µM", "TGI": "1.85 µM"}
{"smiles": "COC(=O)Nc1nc2ccc(C(=O)c3cccc(I)c3)cc2[nH]1", "GI50": "0.0598 µM", "TGI": "2.14 µM"}
{"smiles": "CCCCCCCCN(CCCCCCCC)CC(O)c1cc(-c2ccccc2)nc2ccc(OC)cc12", "note": "(configuration not stated)", "GI50": "39.2 µM", "TGI": "> 100 µM"}
{"smiles": "Cc1c(C(=O)Nc2ccc(N3C[C@@H](C)O[C@@H](C)C3)nc2)cccc1-c1ccc(OC(F)(F)F)cc1", "GI50": "3.11 µM and 5.62 µM", "TGI": "19.2 µM and 31.7 µM"}
{"smiles": "O=C(Nc1cccc([N+](=O)[O-])c1)c1cccc(C(=O)Nc2cccc([N+](=O)[O-])c2)c1", "GI50": "> 100 µM", "TGI": "> 100 µM"}
{"smiles": "Oc1c(C(c2ccc(F)cc2)N2CCCCC2)ccc2cncnc12", "note": "(configuration not stated)", "GI50": "0.494 µM", "TGI": "8.47 µM"}
{"smiles": "Clc1cnc(Nc2ccc(OCCN3CCCC3)cc2)nc1NCc1ccco1", "GI50": "2.37 µM", "TGI": "5.1 µM"}
{"smiles": "N#C/C(=C\\c1ccc[nH]1)c1cc(-c2ccc(Cl)cc2)nn1-c1ccccc1", "GI50": "0.269 µM", "TGI": "2.23 µM"}
{"smiles": "CC1=CC2(C)/C=C(C)/C=C\\CC(O)/C=C3/C=CC(=C4C(=O)OC2(CC1C)C4=O)OC3", "note": "(configuration not stated)", "GI50": "1.18 µM", "TGI": "2.85 µM"}
{"smiles": "Cc1ccsc1C(NC(=O)c1ccccc1)c1cc(Cl)c2cccnc2c1O", "note": "(configuration not stated)", "GI50": "0.602 µM", "TGI": "5.63 µM"}
{"smiles": "C=CCc1c(O)c(C(=O)/C=C/c2ccc(Cl)cc2)c(OC)c2ccoc12", "GI50": "2.27 µM", "TGI": "5.84 µM"}
{"smiles": "CC(C)(C)NCC(O)c1ccccc1Cl", "note": "(configuration not stated)", "GI50": "> 100 µM", "TGI": "> 100 µM"}
{"smiles": "CCOC(=O)N1CCC(N=C2CSc3nnc(-c4cc(C(F)(F)F)cc(C(F)(F)F)c4)n3N2)CC1", "GI50": "1.74 µM", "TGI": "4.67 µM"}
{"smiles": "CCN1CCN(c2ccc(NC(=O)Nc3nc4ccc(-c5ccccc5OC)cc4s3)cc2)CC1", "GI50": "2.17 µM", "TGI": "4.03 µM"}
{"smiles": "O=C(Nc1nc2c(C(F)(F)F)cccc2s1)c1cc(Cl)ccc1O", "GI50": "0.226 µM", "TGI": "0.749 µM"}
{"smiles": "CCC[CH2][Sn]1([CH2]CCC)[O]C(=O)c2cccc([N+](=O)[O-])c2C(=O)[O]1", "GI50": "0.153 µM", "TGI": "0.449 µM"}
{"smiles": "CCC(=O)NC1=C(Cl)C(=O)C(NC(=O)CC)=C(Cl)C1=O", "GI50": "1.72 µM", "TGI": "3.66 µM"}
{"smiles": "CN1C(=O)N(C)C2C1NC(=S)N2/N=C/C=C/c1ccccc1[N+](=O)[O-]", "note": "(configuration not stated)", "GI50": "0.431 µM", "TGI": "88.2 µM"}
{"smiles": "Nc1nc(-c2ccc3c(c2)/C(=C\\c2cc(Br)c(O)c(Br)c2)C(=O)N3)cs1", "GI50": "6.5 µM", "TGI": "> 22.8 µM"}
{"smiles": "Cc1nnc(N/N=C/c2ccc([N+](=O)[O-])o2)[nH]c1=O", "GI50": "0.749 µM", "TGI": "12.2 µM"}
{"smiles": "CC1Cc2c(Cl)ncnc2N(C)c2ccccc21", "note": "(configuration not stated)", "GI50": "1.6 µM", "TGI": "6.81 µM"}
{"smiles": "Cc1[nH]nc(C(F)(F)F)c1Cc1sc2c(c1C(=O)N1C[C@](C)(O)CO1)c(=O)n(C)c(=O)n2C(C)C", "GI50": "> 100 µM", "TGI": "> 100 µM"}
{"smiles": "COc1ccc(C(=O)/C=C/c2ccc(OCc3cccc(C(F)(F)F)c3)c(OC)c2)cc1OC", "GI50": "107 µM", "TGI": "> 1000 µM"}
{"smiles": "C[C@@H]1CC[C@@H]2[C@@H]1[C@H](OC(=O)/C=C/C1CCCCC1)[C@]1(C3CCCCC3)C[C@@H](OC(=O)CO)[C@@]2(C)O1", "GI50": "13.4 µM", "TGI": "27.5 µM"}
